Data from patent publication US20250127778A1, “CANCER IMMUNOTHERAPY COMPOSITION CONTAINING INTERACTION INHIBITOR OF STING AND TRIM29 AS ACTIVE INGREDIENT” (SPARK BIOPHARMA, INC, priority 2021, published 2025).

What was measured:
[1] = system: tumor-infiltrating leukocytes (TILs); assay: Flow cytometry of tumor-infiltrating immune cells; type: in vivo, mouse; settings: combination with cGAMP, FIG. 26
Method: The tumors were extracted after the mice were euthanized with carbon dioxide. The tumor tissues were divided into small pieces with a razor blade, treated with the DMEM solution including 2% horse serum, 0.5 mg/ml of collagenase D, and 40 μg/mL of DNase I for one hour at 37° C., and permeated through a 40-μm filter, thereby being separated into individual cells. Tumor-infiltrating leukocytes (TILs) were separated from the separated cells by percoll concentration-gradient centrifugation, and red blood cells were removed by treatment with red blood cell lysis solution. The obtained cells were redistributed in the FACS solution described above, and FcγRII/III receptors of individual immune cells were neutralized by treatment with the anti-mouse CD16/CD32 Abs (clone 2.4G2) antibody at 4° C. for 10 minutes. The treatment with primary antibodies for individual cell differentiation were performed at 4° C. for 30 minutes. The treated cells were redistributed into a PBS solution after centrifugation and then further centrifuged to remove the supernatant. The cells were fixed by the treatment with 4% paraformaldehyde (PFA) solution at room temperature for 10 minutes, treated with Triton solution (PBS solution including 0.1% BSA and 0.5% Triton-X-100), and centrifuged, and then the supernatant was removed. Cytokine (IFNγ(XMG1.2)-APC, Perforin(S16009A)-PE, granzyme B(QA16A02)-FITC, Biolegend) primary antibodies were treated at room temperature for two hours. Finally, the Triton solution was added, centrifugation was performed, the supernatant was removed, the cells were redistributed into 200 μL of the Triton solution and analyzed by using a FACSCalibur device from BD Bioscience, and the results were quantitatively analyzed by using the FlowJo program from Tree Star, Inc.

STING = target: T1, STING (Mus musculus, UniProt Q3TBT3); assay: Western blotting of intracellular STING in Raw264.7 cells; type: cell-based; design: endogenous in cells; host or cells: Raw264.7; settings: concentration-dependent, FIG. 16
T1 sequence (Q3TBT3 1-378): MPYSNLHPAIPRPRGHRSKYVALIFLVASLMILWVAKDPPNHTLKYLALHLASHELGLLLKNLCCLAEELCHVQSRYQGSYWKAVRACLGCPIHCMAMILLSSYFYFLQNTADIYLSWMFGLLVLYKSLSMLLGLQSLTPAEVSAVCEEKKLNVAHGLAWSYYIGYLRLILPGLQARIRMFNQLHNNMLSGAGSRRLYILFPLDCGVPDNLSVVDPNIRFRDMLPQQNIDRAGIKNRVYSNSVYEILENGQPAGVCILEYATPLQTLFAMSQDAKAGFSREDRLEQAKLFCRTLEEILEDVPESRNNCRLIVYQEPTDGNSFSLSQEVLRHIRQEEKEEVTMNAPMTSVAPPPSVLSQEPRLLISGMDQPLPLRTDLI

COc1ccc(CC2=CN(c3ccc(C(=O)NC[C@H]4CCCO4)cc3[N+](=O)[O-])[C@H](C(C)C)C(=O)N2Cc2ccc(O)cc2)cc1 [Formula 1, 4-((R)-4-(4-hydroxybenzyl)-2-isopropyl-5-(4-methoxybenzyl)-3-oxo-3,4-dihydropyrazin-1 (2H)-yl)-3-nitro-N-(((R)-tetrahydrofuran-2-yl)methyl)benzamide]
infiltration of total T cells and cytotoxic T cells into the tumor ([1]; ratio of CD45+ cells): increased | activity of infiltrated cytotoxic T cells (TNF-α, granzyme B, Perforin) [1]: increased | total ratio of myeloid-derived suppressor cells (MDSC) [1]: decreased | intracellular amount of STING (STING): increased
